Data as given in patent publication US20230192617A1, “AZABICYCLIC(THIO)AMIDES AS FUNGICIDAL COMPOUNDS” (Bayer CropScience Aktiengesellschaft, priority 2020, published 2023).

Columns and labels:
[1] = Measurement of Log P values by HPLC on reversed phase columns (EEC directive 79/831 Annex V.A8); format: physicochemical; details: reversed phase HPLC column, method [a]: LC-UV, acidic range, 0.1% formic acid in water and acetonitrile as eluent
Procedure, shortened: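 Reversed-phase HPLC with UV detection per EEC 79/831 Annex V.A8, linear 10–95% acetonitrile gradient. Aqueous eluent: 0.1% formic acid (acidic), 0.001 M ammonium acetate (neutral), or 0.1% phosphoric acid (acidic); multiple values in one method joined by "+".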

Botrytis cinerea [2] = experiment: In vivo preventive test on Botrytis cinerea (grey mould); details: 500 ppm of active ingredient, preventive spray on gherkin or cabbage, evaluated 4 to 5 days after inoculation, read-out: efficacy
Procedure, shortened: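 Young gherkin or cabbage plants were sprayed with compound in DMSO/acetone/Tween 80 diluted in water, then inoculated 24 hours later with a B. cinerea spore suspension. Incubation lasted 4 to 5 days: gherkin at 17° C., 90% relative humidity; cabbage at 20° C., 100% relative humidity.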

Pyrenophora teres [3] = experiment: In vivo preventive test on Pyrenophora teres (net blotch on barley); details: 240 h, 500 ppm of active ingredient, preventive spray on barley, evaluated 10 days after inoculation, read-out: efficacy
Procedure, shortened: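 Young barley plants sprayed preventively with compound formulated in DMSO/acetone/Tween 80 and diluted in water; controls got solvent only. Inoculated 24 hours later with P. teres spore suspension, then held 48 hours at 20° C, 100% RH and 8 days at 20° C, 70-80% RH.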

Sphaerotheca fuliginea = experiment: In vivo preventive test on Sphaerotheca fuliginea (powdery mildew on cucurbits); details: Podosphaera fuliginea, 192 h; 500 ppm of active ingredient; preventive spray on gherkin; evaluated 8 days after inoculation; read-out: efficacy
Procedure, shortened: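 Young gherkin plants were sprayed with compound in DMSO/acetone/Tween 80 diluted in water. They were inoculated 24 h later with a spore suspension of Sphaerotheca fuliginea. Plants were then kept for 8 days at 20 °C and 70–80% relative humidity.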

Alternaria alternata = Alternaria alternata in vitro cell test; format: cell-based; details: 120 h, 20 ppm of active ingredient, liquid culture, 5 days incubation, spectrometric measurement of mycelium growth, read-out: efficacy (inhibition of fungal growth)
Procedure, shortened: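 Liquid culture assay in which A. alternata spores in medium received DMSO-solubilized compound (final DMSO ≤1%). After 5 days, mycelium growth was measured spectrometrically. Inhibition was calculated against fungicide-free control wells.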

[4] = system: Colletotrichum lindemuthianum; experiment: B-8. Colletotrichum lindemuthianum in vitro cell test; format: cell-based; details: 144 h, 20 ppm of active ingredient, 6 days incubation, liquid culture, absorbance, read-out: efficacy (inhibition of fungal growth)
Procedure, shortened: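 Spore suspension of C. lindemuthianum in liquid medium exposed to DMSO-solubilized compounds (final DMSO ≤1%) for 6 days. Mycelial growth read by absorbance, with inhibition calculated relative to compound-free control wells.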

Pyrenophora teres [5] = experiment: B-10. Pyrenophora teres in vitro cell test; format: cell-based; details: 144 h, 20 ppm of active ingredient, 6 days incubation, liquid culture, absorbance, read-out: efficacy (inhibition of fungal growth)
Procedure, shortened: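 Liquid-culture assay on a P. teres spore suspension with compounds added to the medium from DMSO solutions, final DMSO ≤1%. Mycelium growth read spectrometrically after 6 days. Inhibition calculated from absorbance against untreated control wells.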

Botrytis cinerea [6] = experiment: B-11. Botrytis cinerea in vitro cell test; format: cell-based; details: 144 h, 20 ppm of active ingredient, 6 days incubation, liquid culture, absorbance, read-out: efficacy (inhibition of fungal growth)
Procedure, shortened: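 B. cinerea spores were grown in liquid culture with compound (DMSO ≤1% final). Mycelium growth was measured spectrometrically after 6 days, with inhibition taken as absorbance relative to untreated control wells.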

SMILES | chromatographic logP [1] | pest or weed control at 500 ppm (Botrytis cinerea [2]) | pest or weed control at 500 ppm (Pyrenophora teres [3]) | pest or weed control at 500 ppm (Sphaerotheca fuliginea) | inhibition at 20 ppm (Alternaria alternata) | inhibition at 20 ppm [4] | inhibition at 20 ppm (Pyrenophora teres [5]) | inhibition at 20 ppm (Botrytis cinerea [6])
O=C(NCC(F)c1ccc(Cl)cc1Cl)c1c(Oc2cccc(Cl)c2F)nnc2c1CCCC2 (stereo not drawn) [I-149] | 3.94 | 90 to 100% | 90 to 100% | 90 to 100% | 90 to 100% | 90 to 100% | 90 to 100% | 90 to 100%
Cc1ccc(C(F)(F)CNC(=O)c2c(Oc3cccc(C(F)F)c3)cnc3ccccc23)c(C)c1 [I-220] | 4.08 | 90 to 100% | 70 to 79% | 90 to 100% | 90 to 100% | 90 to 100% | 90 to 100% | 90 to 100%
O=C(NCC(F)c1ccc(Cl)cc1Cl)c1c(Oc2cccc(C(F)(F)F)c2)nnc2c1COCC2 (stereo not drawn) [I-126] | 3.75 | 90 to 100% | 70 to 79% | 90 to 100% | 90 to 100% | 90 to 100% | 90 to 100% | 90 to 100%
Cc1cc(Cl)ccc1C(F)(F)CNC(=O)c1c(Oc2cccc(C(F)(F)F)c2)nnc2c1CCCC2 [I-145] | 4.28 | 90 to 100% | 90 to 100% | 90 to 100% | 90 to 100% | 90 to 100% | 90 to 100% | 90 to 100%
Cc1ccc(C(F)(F)CNC(=O)c2c(Oc3cccc(Cl)c3F)nnc3c2CCCC3)c(Cl)c1 [I-140, 3-(3-chloro-2-fluoro-phenoxy)-N-[2-(2-chloro-4-methyl-phenyl)-2,2-difluoro-ethyl]-5,6,7,8-tetrahydrocinnoline-4-carboxamide] | 3.94 | 90 to 100% | 90 to 100% | 90 to 100% | 90 to 100% | 90 to 100% | 90 to 100% | 90 to 100%
Cc1ccc(C(F)(F)CNC(=O)c2c(Oc3cccc(C(F)(F)F)c3)nnc3c2CCC3)c(Cl)c1 [I-142] | 3.94 | 90 to 100% | 90 to 100% | 90 to 100% | 90 to 100% | 90 to 100% | 90 to 100% | 90 to 100%
Cc1ccc(C(F)CNC(=O)c2c(Oc3cccc(C(F)(F)F)c3)nnc3c2COCC3)c(C)c1 (stereo not drawn) [I-123] | 3.61 | 90 to 100% | 90 to 100% | 90 to 100% | 90 to 100% | 90 to 100% | 90 to 100% | 90 to 100%
Cc1ccc(C(F)(F)CNC(=O)c2c(Oc3cccc(C4CC4)c3F)nnc3c2CCCC3)c(C)c1 [I-131] | 4.23 | 90 to 100% | 90 to 100% | 90 to 100% | 90 to 100% | 90 to 100% | 90 to 100% | 90 to 100%
Cc1ccc(C(F)(F)CNC(=O)c2c(Oc3cccc(C(F)F)c3)nnc3c2CCCC3)c(C)c1 [I-129] | 3.68 | 90 to 100% | 90 to 100% | 90 to 100% | 90 to 100% | 90 to 100% | 90 to 100% | 90 to 100%
Cc1ccc(C(F)(F)CNC(=O)c2c(Oc3cccc(Cl)c3)nnc3c2CCCC3)c(Cl)c1 [I-139] | 3.89 | 90 to 100% | 80 to 89% | 90 to 100% | 90 to 100% | 90 to 100% | 90 to 100% | 90 to 100%
Cc1ccc(C(F)(F)CNC(=O)c2c(Oc3cccc(C4CC4)c3F)nnc3c2CCCC3)c(Cl)c1 [I-141] | 4.17 | 90 to 100% | 90 to 100% | 90 to 100% | 90 to 100% | 90 to 100% | 90 to 100% | 90 to 100%
O=C(NCC(F)c1ccc(Cl)cc1Cl)c1c(Oc2cccc(Cl)c2F)nnc2c1CCC2 (stereo not drawn) [I-188] | 3.89 | 90 to 100% | 90 to 100% | 90 to 100% | 90 to 100% | 90 to 100% | 90 to 100% | 90 to 100%
Cc1ccc(C(F)(F)CNC(=O)c2c(Oc3cccc(C(F)(F)F)c3)nnc3c2CCCC3)c(Cl)c1 [I-239] | 4.05 | 90 to 100% | 90 to 100% | 90 to 100% | 90 to 100% | 90 to 100% | 90 to 100% | 90 to 100%
Cc1ccc(C(F)(F)CNC(=O)c2c(Oc3cccc(Cl)c3F)nnc3c2CCC3)c(C)c1 [I-133] | 3.89 | 90 to 100% | 90 to 100% | 90 to 100% | 90 to 100% | 90 to 100% | 90 to 100% | 90 to 100%
Cc1cc(Cl)ccc1C(F)(F)CNC(=O)c1c(Oc2cccc(Cl)c2F)nnc2c1CCC2 [I-148] | 4 | 90 to 100% | 90 to 100% | 90 to 100% | 90 to 100% | 80 to 89% | 90 to 100% | 90 to 100%
Cc1cc(Br)ccc1C(F)(F)CNC(=O)c1c(Oc2cccc(C(F)F)c2)nnc2c1CCCC2 [I-150] | 3.84 | 90 to 100% | 90 to 100% | 90 to 100% | 90 to 100% | 90 to 100% | 90 to 100% | 90 to 100%
Cc1ccc([C@@H](F)CNC(=O)c2c(Oc3cccc(C(F)(F)F)c3)nnc3ccccc23)cc1C (racemic) [I-084] | 4.19 | 90 to 100% | 90 to 100% | 80 to 89% | 90 to 100% | 90 to 100% | 90 to 100% | 90 to 100%
Cc1ccc2c(C(=O)NCC(F)(F)c3ccc(C)c(C)c3)c(Oc3cccc(C(F)(F)F)c3)nnc2c1 [I-246] | 4.66 | 90 to 100% | 80 to 89% | 90 to 100% | 90 to 100% | 90 to 100% | 90 to 100% | 90 to 100%
Cc1ccc(C(F)(F)CNC(=O)c2c(Oc3cccc(C(F)(F)F)c3)nnc3cc(C)ccc23)c(Cl)c1 [I-245] | 4.7 | 90 to 100% | 90 to 100% | 90 to 100% | 90 to 100% | 90 to 100% | 90 to 100% | 90 to 100%
Cc1ccc(CCNC(=O)c2c(Oc3cccc(C4CC4)c3F)nnc3ccccc23)c(C)c1 [I-070] | 4.42 | 90 to 100% | 90 to 100% | 90 to 100% | 90 to 100% | 90 to 100% | 90 to 100% | 90 to 100%
O=C(NC[C@H](F)c1ccc(Cl)cc1Cl)c1c(Oc2cccc(C3CC3)c2F)nnc2ccccc12 (racemic) [I-072] | 4.57 | 90 to 100% | 90 to 100% | 90 to 100% | 90 to 100% | 90 to 100% | 90 to 100% | 90 to 100%
